Data taken from patent US11602550B2, “Compositions comprising bacterial strains and use thereof in controlling pathogenic microorganisms” (priority 2018, dated 2023).

Columns and labels:
Experiment in all cases: Agar well diffusion antifungal assay against molds
Type in all cases: cell-based
Settings in all cases: PDA plates, 25° C. 72 hours; NA: No antagonism was observed
[1] = test system: Penicillium chrysogenum Thom (ATCC MYA-4644)
Description: (§1) The agar well diffusion assay was performed to evaluate the antagonistic activity of B. amyloliquefaciens 298 against the growth of pathogenic bacteria including Escherichia coli ATCC 22922, Pseudomonas aeruginosa, B. cereus ATCC 27348, Staphylococcus aureus ATCC 11335, Salmonella Typhimurium ATCC 14028 and Listeria innocua ATCC 3586. […] Brain Heart Infusion (BHI) Agar was used for the antagonism against pathogenic microorganisms while the Potato Dextrose Agar (PDA) was used for evaluation against molds. Reference pathogens were prepared using BHI broth at 37° C. for 18 hours while B. amyloliquefaciens 298 was grown using LB broth at 37° C. for 18 hours. Molds were prepared using PDA at 25° C. with 85% HR for 7 days. Mold spores, pathogens and B. amyloliquefaciens 298 were harvested and resuspended in PBS. Pathogens and B. amyloliquefaciens 298 were adjusted to an optical density of 0.2 and 100 uL of pathogen suspended in PBS was spread on BHI agar plates. The same amount of mold spore suspension was inoculated on PDA. Wells were made in all the plates and 20 μL of B. amyloliquefaciens 298 suspensions were inoculated in the wells while the BHI plates were incubated at 37° C. for 24 hours and PDA plates at 25° C. for 72 hours.
(§2) The agar well diffusion assay was performed to evaluate the antagonistic activity of B. subtilis 3 against the growth of pathogenic bacteria including Escherichia coli ATCC 25922, Pseudomonas aeruginosa ATCC 27853, B. cereus ATCC 27348, Staphylococcus aureus ATCC 6538, Salmonella Typhymurium ATCC 14028 and Listeria inocua ATCC 33090. […] Brain Heart Infusion (BHI) Agar was used for the antagonism against pathogenic microorganisms while the Potato Dextrose Agar (PDA) was used for evaluation against molds. Reference pathogens were prepared using BHI broth 37° C. for 18 hours, while B. subtilis 3 was grown using LB broth at 37° C. for 18 hours. Molds were prepared using PDA at 25° C. with 85% HR for 7 days. Mold spores, pathogens and B. subtilis 3 were harvested and resuspended in PBS. […] The same amount of mold spore suspension was inoculated on PDA. […]

[2] = test system: Cladosporium sphaerospermum Penzig (ATCC MYA-4645)
Description: as §1, §2

[3] = test system: Alternaria alternata (Fries) Keissler (ATCC MYA-4642)
Description: as §1, §2

OO [Hydrogen peroxide 10%, Hydrogen peroxide]
Inhibition zone, Penicillium chrysogenum Thom (ATCC MYA-4644) [1]: 10 mm | Inhibition zone, Cladosporium sphaerospermum Penzig (ATCC MYA-4645) [2]: 12 mm | Inhibition zone, Alternaria alternata (Fries) Keissler (ATCC MYA-4642) [3]: 8 mm
